According to ChEMBL document CHEMBL3632519, “Withanolides and Sucrose Esters from Physalis neomexicana” (J Nat Prod, 2015):

Legend:
[1] = system: MDA-MB-231; assay: Cytotoxicity against human MDA-MB-231 cells by MTT assay; assay type: functional, cell-based
[2] = system: MCF7; assay: Cytotoxicity against human MCF7 cells by MTT assay; assay type: functional, cell-based

Compound	IC50 [1]	IC50 [2]
CC1=C(C)C(=O)O[C@@H]([C@@H](C)[C@H]2CC[C@H]3[C@@H]4C[C@H]5O[C@]56[C@@H](O)C=CC(=O)[C@]6(CO)[C@H]4CC[C@]23C)C1 [WITHALONGOLIDE B]	200 nM	800 nM
CC(=O)O[C@H]1C[C@H]([C@@](C)(O)[C@@H]2C[C@H](C)[C@@H](C)C(=O)O2)[C@@]2(C)CC[C@H]3[C@@H](C[C@H]4O[C@]45CC=CC(=O)[C@]35C)[C@@]12O	1700 nM	6300 nM
CC1=C(CO)C(=O)O[C@@H]([C@@H](C)[C@H]2CC[C@H]3[C@@H]4C[C@H]5O[C@]56[C@@H](O)C=CC(=O)[C@]6(C)[C@H]4CC[C@]23C)C1 [WITHAFERIN A]	500 nM	–
